Here are results for 23 molecules from US20240368120A1 (Terns Pharmaceuticals, Inc., priority 2023, published 2024).

The structures appear in SMILES notation.

The target of the assay is T1, human GLP-1R receptor (Homo sapiens, UniProt P43220).
T1 construct: expressed in transfected cells
Put plainly: GLP-1R low expression cell assay (cAMP TR-FRET, CHO-K1_hGLP-1Rlow_clone10 cells). The assay is classed as cell-based. The note with it: for EC50: cAMP TR-FRET, 30 min at 25° C.; for Emax: maximum activation relative to control GLP-1 peptide agonist. In short, it runs like this: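 Readout is cAMP TR-FRET after 30 min compound stimulation at 25 °C of a low-GLP-1R-expressing CHO-K1 clone (1,000 cells/well), with 10-point 3-fold serial dilutions. Percent activation versus a control GLP-1 peptide, from duplicates, was Hill-fitted to give EC50.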
In general terms: TR-FRET usually uses a lanthanide donor and a delayed reading to cut background.

T1 sequence (P43220 24-463): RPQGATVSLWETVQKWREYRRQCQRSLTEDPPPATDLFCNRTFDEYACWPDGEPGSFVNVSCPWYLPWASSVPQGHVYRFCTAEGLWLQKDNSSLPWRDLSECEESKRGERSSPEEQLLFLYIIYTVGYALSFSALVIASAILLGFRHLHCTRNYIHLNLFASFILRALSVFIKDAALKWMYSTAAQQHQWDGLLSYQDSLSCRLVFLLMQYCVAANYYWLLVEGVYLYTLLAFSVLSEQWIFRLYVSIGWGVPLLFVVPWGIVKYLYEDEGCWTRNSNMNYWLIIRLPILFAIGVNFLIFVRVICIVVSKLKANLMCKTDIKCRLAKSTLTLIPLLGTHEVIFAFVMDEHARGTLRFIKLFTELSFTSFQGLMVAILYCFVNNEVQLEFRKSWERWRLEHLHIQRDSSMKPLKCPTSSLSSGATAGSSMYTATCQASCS

The EC50 is the midpoint of the concentration-response curve. The term Emax denotes the maximal effect, on the per cent scale that the assay sets. The molecule `Cn1c(CN2CC=C(c3cccc(OCc4ccc(Cl)cc4F)c3)CC2)nc2c(OC(F)F)cc(C(=O)O)cc21` [Compound 159, 2-((4-(3-((4-Chloro-2-fluorobenzyl)oxy)phenyl)-3,6-dihydropyridin-1(2H)-yl)methyl)-4-(difluoromethoxy)-1-methyl-1H-benzo[d]imidazole-6-carboxylic acid] had an EC50 of 100 to 1000 nM and an Emax greater than 85%.

The molecule `CCOc1cc(C(=O)O)cc2c1nc(CN1CCC(c3cccc4c3O[C@@H](c3ccc(Cl)cc3F)CO4)CC1)n2C` [Compound 266, (S)-2-((4-(3-(4-chloro-2-fluorophenyl)-2,3-dihydrobenzo[b][1,4]dioxin-5-yl)piperidin-1-yl)methyl)-4-ethoxy-1-methyl-1H-benzo[d]imidazole-6-carboxylic acid] returned an EC50 of less than 10 nM and an Emax greater than 85%.

Molecule `CCOc1cc(C(=O)O)cc2c1nc(CN1CCC(Oc3cccc(COc4ccc(Cl)cc4F)n3)CC1)n2C` [Compound 256, 2-((4-((6-((4-chloro-2-fluorophenoxy)methyl)pyridin-2-yl)oxy)piperidin-1-yl)methyl)-4-ethoxy-1-methyl-1H-benzo[d]imidazole-6-carboxylic acid] returned an EC50 of less than 10 nM and an Emax greater than 85%.

`N#Cc1ccc(COc2cccc(C3CCN(Cc4nc5c(OC(F)F)cc(C(=O)O)cc5n4C[C@@H]4CCS4(=O)=O)CC3)n2)c(F)c1` [Compound 110, (S)-2-((4-(6-((4-Cyano-2-fluorobenzyl)oxy)pyridin-2-yl)piperidin-1-yl)methyl)-4-(difluoromethoxy)-1-((1,1-dioxidothietan-2-yl)methyl)-1H-benzo[d]imidazole-6-carboxylic acid]: the EC50 is less than 10 nM and the maximum response (Emax) was greater than 85%.

The molecule `Cn1c(CN2CCC(c3ccc(F)c(OCc4ccc(C(N)=O)cc4F)n3)CC2)nc2c(OC(F)F)cc(C(=O)O)cc21` [Compound 185, 2-((4-(6-((4-carbamoyl-2-fluorobenzyl)oxy)-5-fluoropyridin-2-yl)piperidin-1-yl)methyl)-4-(difluoromethoxy)-1-methyl-1H-benzo[d]imidazole-6-carboxylic acid] registered an EC50 of 100 to 1000 nM and an Emax greater than 85%.

In turn, `CO/N=C/c1ccc(COc2cccc(C3CCN(Cc4nc5c(OC)cc(C(=O)O)cc5n4C[C@@H]4CCO4)CC3)n2)c(F)c1` [Compound 9, (S)-2-((4-(6-((2-Fluoro-4-((methoxyimino)methyl)benzyl)oxy)pyridin-2-yl)piperidin-1-yl)methyl)-4-methoxy-1-(oxetan-2-ylmethyl)-1H-benzo[d]imidazole-6-carboxylic acid] gave a concentration giving a half-maximal response (EC50) of less than 10 nM and an Emax greater than 85%.

The molecule `COc1cc(C(=O)O)cc2c1nc(CN1CCC(c3cccc(OCc4cc(F)c(Cl)cc4F)n3)CC1)n2C` [Compound 272, 2-((4-(6-((4-Chloro-2,5-difluorobenzyl)oxy)pyridin-2-yl)piperidin-1-yl)methyl)-4-methoxy-1-methyl-1H-benzo[d]imidazole-6-carboxylic acid] returned an EC50 of less than 10 nM and an Emax greater than 85%.

`Cn1c(CN2CCC(c3cccc4c3O[C@@](C)(c3ccc(Cl)cn3)O4)CC2)nc2c(C(C)(F)F)cc(C(=O)O)cc21` [Compound 87, (S)-2-((4-(2-(5-Chloropyridin-2-yl)-2-methylbenzo[d][1,3]dioxol-4-yl)piperidin-1-yl)methyl)-4-(1,1-difluoroethyl)-1-methyl-1H-benzo[d]imidazole-6-carboxylic acid] showed a half-maximal effective concentration (EC50) of 100 to 1000 nM and an Emax greater than 85%.

On to `COc1cc(C(=O)O)cc2c1nc(Cc1ccc(-c3cccc(OCc4ccc(C#N)cc4F)n3)cc1F)n2C` [Compound 342, 2-(4-(6-((4-cyano-2-fluorobenzyl)oxy)pyridin-2-yl)-2-fluorobenzyl)-4-methoxy-1-methyl-1H-benzo[d]imidazole-6-carboxylic acid], for which the EC50 was less than 10 nM and the Emax was greater than 85%.

Turning to `CCOc1cc(C(=O)O)cc2c1nc(CN1CCC(c3cccc4c3O[C@H](c3ccc(Cl)cc3F)CO4)CC1)n2C` [Compound 265, (R)-2-((4-(3-(4-chloro-2-fluorophenyl)-2,3-dihydrobenzo[b][1,4]dioxin-5-yl)piperidin-1-yl)methyl)-4-ethoxy-1-methyl-1H-benzo[d]imidazole-6-carboxylic acid], the EC50 lay in the range of 10 to 100 nM and the maximum response (Emax) is greater than 85%.

As for `Cn1c(CN2CCC(c3cccc(OCc4ccc(C(F)(F)F)cc4)n3)CC2)nc2c(OC(F)F)cc(C(=O)O)cc21` [Compound 203, 4-(difluoromethoxy)-1-methyl-2-((4-(6-((4-(trifluoromethyl)benzyl)oxy)pyridin-2-yl)piperidin-1-yl)methyl)-1H-benzo[d]imidazole-6-carboxylic acid], the EC50 fell in the range of 10 to 100 nM and the maximum response (Emax) is greater than 85%.

In turn, `Cn1c(CN2CCC(c3cccc(OCc4cnc(C#N)cc4F)n3)CC2)nc2c(OC(F)F)cc(C(=O)O)cc21` [Compound 350, 2-((4-(6-((6-Cyano-4-fluoropyridin-3-yl)methoxy)pyridin-2-yl)piperidin-1-yl)methyl)-4-(difluoromethoxy)-1-methyl-1H-benzo[d]imidazole-6-carboxylic acid] came in with an EC50 of 100 to 1000 nM and an Emax greater than 85%.

Molecule `Cn1c(CN2CCC(c3cccc(OCc4ccc(Cl)cc4F)n3)CC2)nc2c(OC(F)F)c(C(=O)O)ccc21` [Compound 220, 2-((4-(6-((4-Chloro-2-fluorobenzyl)oxy)pyridin-2-yl)piperidin-1-yl)methyl)-4-(difluoromethoxy)-1-methyl-1H-benzo[d]imidazole-5-carboxylic acid] gave an EC50 greater than 1000 nM and an Emax greater than 85%.

`CCCOc1cc(C(=O)O)cc2c1nc(CN1CCC(c3cccc(OCc4ccc(C#N)cc4F)n3)CC1)n2C` [Compound 319, 2-((4-(6-((4-Cyano-2-fluorobenzyl)oxy)pyridin-2-yl)piperidin-1-yl)methyl)-1-methyl-4-propoxy-1H-benzo[d]imidazole-6-carboxylic acid] registered an EC50 of 10 to 100 nM and an Emax greater than 85%.

In turn, `CCOc1cc(C(=O)O)cc2c1nc(CN1CCC(c3cccc4c3OC[C@@H](c3ccc(Cl)cc3F)O4)CC1)n2C` [Compound 269, (R)-2-((4-(2-(4-chloro-2-fluorophenyl)-2,3-dihydrobenzo[b][1,4]dioxin-5-yl)piperidin-1-yl)methyl)-4-ethoxy-1-methyl-1H-benzo[d]imidazole-6-carboxylic acid] registered a concentration giving a half-maximal response (EC50) of 100 to 1000 nM and an Emax greater than 85%.

On to `Cn1c(CN2CCC(c3cccc(OCc4ccc(Cl)cc4F)n3)CC2)nc2c(OC(F)F)cc(-c3nnc(C(F)(F)F)[nH]3)cc21` [Compound 232, 2-((4-(6-((4-Chloro-2-fluorobenzyl)oxy)pyridin-2-yl)piperidin-1-yl)methyl)-4-(difluoromethoxy)-1-methyl-6-(5-(trifluoromethyl)-4H-1,2,4-triazol-3-yl)-1H-benzo[d]imidazole], for which the EC50 is greater than 1000 nM and the maximum response (Emax) lay in the range of 25 to 50%.

Turning to `COCC(F)(F)Oc1cc(C(=O)O)cc2c1nc(CN1CCC(c3cccc(OCc4ccc(Cl)cc4F)n3)CC1)n2C` [Compound 227, 2-((4-(6-((4-Chloro-2-fluorobenzyl)oxy)pyridin-2-yl)piperidin-1-yl)methyl)-4-(1,1-difluoro-2-methoxyethoxy)-1-methyl-1H-benzo[d]imidazole-6-carboxylic acid], the EC50 was less than 10 nM and the Emax was greater than 85%.

Molecule `Cn1c(CN2CCC(c3cccc(OCc4ccc(Cl)cc4F)n3)CC2)nc2c3c(c(C(=O)O)cc21)OCCO3` [Compound 311, 2-((4-(6-((4-chloro-2-fluorobenzyl)oxy)pyridin-2-yl)piperidin-1-yl)methyl)-3-methyl-7,8-dihydro-3H-[1,4]dioxino[2′,3′:3,4]benzo[1,2-d]imidazole-5-carboxylic acid] yielded an EC50 of 10 to 100 nM and an Emax greater than 85%.

For `Cn1c(CN2CCC(c3nccc(OCc4ccc(C#N)cc4F)n3)CC2)nc2c(OC(F)F)cc(C(=O)O)cc21` [Compound 184, 2-((4-(4-((4-Cyano-2-fluorobenzyl)oxy)pyrimidin-2-yl)piperidin-1-yl)methyl)-4-(difluoromethoxy)-1-methyl-1H-benzo[d]imidazole-6-carboxylic acid], the EC50 fell in the range of 100 to 1000 nM and the maximum response (Emax) is greater than 85%.

With `CC(CF)Oc1cc(C(=O)O)cc2c1nc(CN1CCC(c3cccc(OCc4ccc(Cl)cc4F)n3)CC1)n2C` (single isomer, unassigned) [Compound 262], the half-maximal effective concentration (EC50) lay in the range of 10 to 100 nM and the Emax is greater than 85%.

`Cn1c(CN2CCC(c3cccc(OCc4ccc(Cl)cc4F)n3)CC2)nc2c(OC(F)F)cc(C(=O)O)c(F)c21` [Compound 190, 2-((4-(6-((4-Chloro-2-fluorobenzyl)oxy)pyridin-2-yl)piperidin-1-yl)methyl)-4-(difluoromethoxy)-7-fluoro-1-methyl-1H-benzo[d]imidazole-6-carboxylic acid] had an EC50 of 10 to 100 nM and an Emax greater than 85%.

In the case of `CCOc1cc(C(=O)O)cc2c1nc(CN1CCC(c3cccc4c3OC[C@H](c3ccc(C#N)cc3F)O4)CC1)n2C` [Compound 277, (S)-2-((4-(2-(4-Cyano-2-fluorophenyl)-2,3-dihydrobenzo[b][1,4]dioxin-5-yl)piperidin-1-yl)methyl)-4-ethoxy-1-methyl-1H-benzo[d]imidazole-6-carboxylic acid], the EC50 was greater than 1000 nM and the Emax fell in the range of 50 to 85%.

`COCCOc1cc(C(=O)O)cc2[nH]c(CN3CCC(c4cccc5c4O[C@@](C)(c4ccc(Cl)cn4)O5)CC3)nc12` [Compound 74, (S)-2-((4-(2-(5-Chloropyridin-2-yl)-2-methylbenzo[d][1,3]dioxol-4-yl)piperidin-1-yl)methyl)-4-(2-methoxyethoxy)-1H-benzo[d]imidazole-6-carboxylic acid] gave an EC50 of 10 to 100 nM and an Emax greater than 85%.
